# Reference: a melting point compilation (Tetko et al.; mined from patent text by program, amines drawn as free bases though some values may be those of a salt)
row,Compound,melting point
1,Cc1ccc(C(=O)NC(NC(=S)Nc2cccc([N+](=O)[O-])c2)c2ccccc2)cc1 (centres undefined),170 to 172 °C
2,O=C(CS)N[C@@H](Cc1c[nH]cn1)C(=O)O,198 to 200 °C
3,CN(C)c1ccc(O)c2c1CC1CC3C(N(C)C)C(O)=C(C(N)=O)C(=O)C3(O)C(O)=C1C2=O (centres undefined),113 °C
4,CCCC(C)(O)C(=O)Nc1ccnc(Br)c1 (centres undefined),102 °C
5,CC(=O)N1CCc2oc3ncccc3c(=O)c2C1,182 to 184 °C
6,Cc1cccc(COc2nn3c(-c4ccccc4)nnc3cc2C23CCC(CC2)C3)n1,162 to 164 °C
7,CCCCCCCCCCCCCCCCNc1ccc(C(=O)N(C)C)cc1,70 to 72 °C
8,CC(C)(C)OC(=O)N1CCc2c(n(CCCc3ccccc3)c3cc(Cl)c(Cl)cc23)CC1,119 to 124 °C
9,CCOC(=O)C(=CN(C)C)C(=O)Nc1ccc(Br)cc1C,88 to 90 °C
10,CCCCOC(=O)NC(=O)C1c2ccccc2Oc2ccccc21,180 to 183 °C
11,Cc1sc(C(=O)O)c2c1-c1c(cnn1CC(F)(F)F)CC2,250 to 251 °C
12,COCCOC(=O)Nc1cccc(C)c1COc1cccn2c(C)c(C)nc12,107 to 108 °C
13,COc1ccc(C2=NCCc3c(C)cccc32)cc1,83 to 83.5 °C
14,CCCCCCNC(=O)C(CCC(=O)O)NC(=O)C(NC(=O)OC(C)(C)C)C(C)C (centres undefined),63 to 65 °C
15,Cc1c2c(nn1Cc1ccccc1)c(N)nc1ccccc12,> 250 °C
16,CCOC1=NS(=O)(=O)c2cc(NC=O)ccc21,188 to 194 °C
17,CCCc1c2c(c([N+](=O)[O-])c3c(=O)cc(C(=O)OCC)oc13)CC(C(=O)OCC)CC2 (centres undefined),164 to 166 °C
18,Cc1c(C)c2c(c(C)c1NCc1ccccc1)OC(C)(C)C2=O,79 to 83 °C
19,CSc1nn(-c2c(Cl)cc(C(F)(F)F)cc2Cl)c(C)c1C(=O)c1cccc(C)c1,103 to 104 °C
20,CN(O)C(=O)c1ccccc1Nc1c(Cl)cccc1Cl,137 to 140 °C

row,Compound,melting point
1,Cc1[nH]cnc1Cc1cn(C)c2ccccc2c1=O,110 to 113 °C
2,NS(=O)(=O)c1csc2cc(O)cnc12,245 to 247 °C
3,O=C(Nc1ccc(-n2nc(C(F)(F)F)cc2C(F)(F)F)cc1)C1=CCCC1,174 to 175 °C
4,O=C(NO)c1ccc(CNC(=O)c2[nH]c(-c3ccccc3)cc2-c2ccc(Cl)c(Cl)c2)cc1,187 to 188 °C
5,Cc1nc2c(N)nc3ccccc3c2n1CCCOCCCc1ccccc1,145 to 146 °C
6,O=C(C=Cc1ccc(-c2ccc3ncnc(Nc4ccc(OCc5cccc(F)c5)c(Cl)c4)c3c2)s1)NOC1CCCCO1 (centres undefined),166 °C
7,CN1C(=O)C(c2cccc(-c3cccnc3F)c2)(c2cc(C=NO)n(CCCF)c2)N=C1N (centres undefined),119 to 123 °C
8,O=C(O)C(Cl)(Cl)CCCCCCCCCCCCBr,59 to 60 °C
9,CCNC1(C(N)=O)C=C2C(=Nc3ccccc32)C=N1 (centres undefined),233 to 236 °C
10,COC(=O)c1sc(C)c(Br)c1SC(=O)N(C)C,175 to 176 °C
11,CC(C(N)=O)c1ccc2c(c1)Oc1ncccc1CC2=O (centres undefined),89 to 90 °C
12,CC(C)(C)c1cc(CCN=C(O)c2cc(C(O)=NCCc3cc(C(C)(C)C)c(O)c(C(C)(C)C)c3)c(C(=O)O)cc2C(=O)O)cc(C(C)(C)C)c1O,231 to 233 °C
13,CN(C(=O)c1cc(C(F)(F)F)cc(C(F)(F)F)c1)C(CCCC(=O)O)Cc1c[nH]c2ccccc12 (centres undefined),152 to 157 °C
14,COC(=O)C1(O)CCCC(=O)C1N=Nc1ccccc1 (centres undefined),144 °C
15,Nc1nc(O)c2cc(CCc3ccc(C(=O)O)cc3)cnc2n1,> 300 °C
16,Cc1cccc(-c2[nH]c(C(C)C)nc2-c2ccc(F)c(-c3ccc(S(N)(=O)=O)cc3)c2)n1,245 to 246 °C
17,CN(Cc1ccccc1)C(=O)/C=C/c1cc(Cl)cnc1N,106 to 109 °C
18,Cc1ccc(S(=O)(=O)OCC(O)(CC(C)c2ccccc2)C(F)(F)F)cc1 (centres undefined),95 to 96 °C
19,CS(=O)(=O)c1ccc(Oc2ccc(Cl)c(Cl)c2)c(C#N)c1,162 to 163 °C
